Experimental data as given in patent publication US10758534B2 (Vertex Pharmaceuticals Incorporated, priority 2014, dated 2020).

Each molecule was assayed against T1, F508del (Homo sapiens, UniProt P13569, DEL508-508) (assay: Protocol 2: FRET membrane potential optical assay (VIPR), identification of correction compounds). Conditions: F508del CFTR modulator activity; compounds of Table 1; read-out: EC30.
T1 construct: expressed in transfected cells
Format: cell-based
How it was run: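 Corrector readout: membrane-potential FRET (CC2-DMPE donor, DiSBAC2(3) acceptor) on VIPR II after Cl⁻-free gluconate bath with 10 μM forskolin and 20 μM genistein. Before this, F508del-expressing NIH3T3 cells were exposed to test compound for 16 h at 37 °C without serum; 27 °C incubation served as temperature-correction control.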

T1 sequence (P13569 with tags, fused parts or gaps DEL508-508): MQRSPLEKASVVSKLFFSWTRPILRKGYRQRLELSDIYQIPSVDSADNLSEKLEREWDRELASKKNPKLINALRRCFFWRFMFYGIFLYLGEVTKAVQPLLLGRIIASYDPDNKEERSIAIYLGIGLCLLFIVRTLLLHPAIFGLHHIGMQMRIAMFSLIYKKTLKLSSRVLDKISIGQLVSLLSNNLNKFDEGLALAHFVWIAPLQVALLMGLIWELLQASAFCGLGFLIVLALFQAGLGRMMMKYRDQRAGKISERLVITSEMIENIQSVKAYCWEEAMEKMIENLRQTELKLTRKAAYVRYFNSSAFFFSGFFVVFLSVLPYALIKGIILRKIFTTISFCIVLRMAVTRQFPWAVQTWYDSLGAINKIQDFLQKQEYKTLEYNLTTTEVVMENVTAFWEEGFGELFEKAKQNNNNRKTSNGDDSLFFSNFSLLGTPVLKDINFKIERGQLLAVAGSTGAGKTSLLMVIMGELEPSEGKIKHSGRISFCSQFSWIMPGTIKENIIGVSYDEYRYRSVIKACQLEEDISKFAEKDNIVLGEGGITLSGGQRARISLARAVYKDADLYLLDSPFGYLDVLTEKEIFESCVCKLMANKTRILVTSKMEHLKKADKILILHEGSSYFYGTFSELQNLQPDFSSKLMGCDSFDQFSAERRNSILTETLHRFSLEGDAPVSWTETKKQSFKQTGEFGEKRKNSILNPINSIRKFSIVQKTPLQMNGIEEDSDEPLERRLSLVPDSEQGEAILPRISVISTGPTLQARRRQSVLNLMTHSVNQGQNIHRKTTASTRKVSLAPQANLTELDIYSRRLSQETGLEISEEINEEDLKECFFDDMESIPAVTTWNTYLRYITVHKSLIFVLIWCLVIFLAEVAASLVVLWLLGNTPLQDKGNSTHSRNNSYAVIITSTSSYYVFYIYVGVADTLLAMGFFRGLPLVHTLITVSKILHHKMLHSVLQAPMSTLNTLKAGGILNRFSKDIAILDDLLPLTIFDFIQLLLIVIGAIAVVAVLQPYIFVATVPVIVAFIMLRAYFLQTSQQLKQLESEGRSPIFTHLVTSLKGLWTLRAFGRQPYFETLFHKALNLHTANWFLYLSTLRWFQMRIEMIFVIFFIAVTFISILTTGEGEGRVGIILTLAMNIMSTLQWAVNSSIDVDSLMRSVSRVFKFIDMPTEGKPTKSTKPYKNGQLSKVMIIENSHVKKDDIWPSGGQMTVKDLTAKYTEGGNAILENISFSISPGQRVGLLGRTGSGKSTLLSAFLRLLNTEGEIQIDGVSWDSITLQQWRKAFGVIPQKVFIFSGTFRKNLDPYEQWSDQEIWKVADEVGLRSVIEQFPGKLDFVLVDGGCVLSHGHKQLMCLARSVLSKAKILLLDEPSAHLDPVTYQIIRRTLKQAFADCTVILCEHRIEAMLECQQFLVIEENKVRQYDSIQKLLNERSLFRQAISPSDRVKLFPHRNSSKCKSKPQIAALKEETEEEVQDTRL

| SMILES | EC30 |
| --- | --- |
| CCOc1ccc(-c2ccc(C(=O)NS(=O)(=O)c3cccnc3N)c(N3C[C@@H](C)CC3(C)C)n2)cc1F [Compound 2403, N-[(2-amino-3-pyridyl)sulfonyl]-6-(4-ethoxy-3-fluoro-phenyl)-2-[(4S)-2,2,4-trimethylpyrrolidin-1-yl]pyridine-3-carboxamide] | < 3000 nM |
| C[C@@H]1CN(c2nc3ccccc3cc2C(=O)NS(=O)(=O)c2ccc[nH]c2=O)C(C)(C)C1 [Compound 2405, N-[(2-oxo-1H-pyridin-3-yl)sulfonyl]-2-[(4S)-2,2,4-trimethylpyrrolidin-1-yl]quinoline-3-carboxamide] | < 3000 nM |
| C[C@@H]1CN(c2nc(-n3cc(OCC(C)(C)C)cn3)ccc2C(=O)NS(=O)(=O)c2cccnc2N)C(C)(C)C1 [Compound 2406, N-[(2-amino-3-pyridyl)sulfonyl]-6-[4-(2,2-dimethylpropoxy)pyrazol-1-yl]-2-[(4S)-2,2,4-trimethylpyrrolidin-1-yl]pyridine-3-carboxamide] | < 3000 nM |
| CC1CN(c2ncccc2C(=O)NS(=O)(=O)c2cccc(NC3CCN(Cc4ccccc4)C3)n2)C(C)(C)C1 (stereo not drawn) [Compound 2407, N—[[6-[(1-benzylpyrrolidin-3-yl)amino]-2-pyridyl]sulfonyl]-2-(2,2,4-trimethylpyrrolidin-1-yl)pyridine-3-carboxamide] | 3000 to 10000 nM |
| CCOc1ccc(C)cc1-c1ccc(C(=O)NS(=O)(=O)c2ccc[nH]c2=O)c(N2C[C@@H](C)CC2(C)C)n1 [Compound 2410, 6-(2-ethoxy-5-methyl-phenyl)-N-[(2-oxo-1H-pyridin-3-yl)sulfonyl]-2-[(4S)-2,2,4-trimethylpyrrolidin-1-yl]pyridine-3-carboxamide] | < 3000 nM |
| COc1cccc(-c2ccc(C(=O)NS(=O)(=O)c3ccccc3)c(N3C[C@@H](C)CC3(C)C)n2)n1 [Compound 2411, N-(benzenesulfonyl)-6-(6-methoxy-2-pyridyl)-2-[(4S)-2,2,4-trimethylpyrrolidin-1-yl]pyridine-3-carboxamide] | < 3000 nM |
| CC1CN(c2ncccc2C(=O)NS(=O)(=O)c2cccc(OCC(C)(C)C)n2)C(C)(C)C1 (stereo not drawn) [Compound 2412, N—[[6-(2,2-dimethylpropoxy)-2-pyridyl]sulfonyl]-2-(2,2,4-trimethylpyrrolidin-1-yl)pyridine-3-carboxamide] | < 3000 nM |
| COc1ccc(C)cc1-c1ccc(C(=O)NS(=O)(=O)c2cccnc2N)c(N2C[C@@H](C)CC2(C)C)n1 [Compound 2413, N-[(2-amino-3-pyridyl)sulfonyl]-6-(2-methoxy-5-methyl-phenyl)-2-[(4S)-2,2,4-trimethylpyrrolidin-1-yl]pyridine-3-carboxamide] | < 3000 nM |
| C[C@@H]1CN(c2nc(-c3cccc(F)c3)ccc2C(=O)NS(=O)(=O)N2CC[C@H](N)C2)C(C)(C)C1 [Compound 2414, N-[(3S)-3-aminopyrrolidin-1-yl]sulfonyl-6-(3-fluorophenyl)-2-[(4S)-2,2,4-trimethylpyrrolidin-1-yl]pyridine-3-carboxamide] | 3000 to 10000 nM |
| CC1CN(c2ncccc2C(=O)NS(=O)(=O)c2cccc(OCc3ccc(C(C)C)cc3)n2)C(C)(C)C1 (stereo not drawn) [Compound 2415, N—[[6-[(4-isopropylphenyl)methoxy]-2-pyridyl]sulfonyl]-2-(2,2,4-trimethylpyrrolidin-1-yl)pyridine-3-carboxamide] | < 3000 nM |
| C[C@@H]1CN(c2nc(-c3cc(C(F)(F)F)nn3C)ccc2C(=O)NS(=O)(=O)c2cccnc2N)C(C)(C)C1 [Compound 2416, N-[(2-amino-3-pyridyl)sulfonyl]-6-[2-methyl-5-(trifluoromethyl)pyrazol-3-yl]-2-[(4S)-2,2,4-trimethylpyrrolidin-1-yl]pyridine-3-carboxamide] | < 3000 nM |
| C[C@@H]1CN(c2nc(C(C)(C)C)c(C3=CCN(C(=O)Cc4ccccc4)CC3)cc2C(=O)NS(=O)(=O)c2cccc(N)n2)C(C)(C)C1 [Compound 2417, N-[(6-amino-2-pyridyl)sulfonyl]-6-tert-butyl-5-[1-(2-phenylacetyl)-3,6-dihydro-2H-pyridin-4-yl]-2-[(4S)-2,2,4-trimethylpyrrolidin-1-yl]pyridine-3-carboxamide] | < 3000 nM |
| C[C@@H]1CN(c2nc(-c3cncc4ccccc34)ccc2C(=O)NS(=O)(=O)c2cccnc2N)C(C)(C)C1 [Compound 2418, N-[(2-amino-3-pyridyl)sulfonyl]-6-(4-isoquinolyl)-2-[(4S)-2,2,4-trimethylpyrrolidin-1-yl]pyridine-3-carboxamide] | < 3000 nM |
| COc1ccc2nc(N3C[C@@H](C)CC3(C)C)c(C(=O)NS(=O)(=O)c3ccc[nH]c3=O)cc2c1 [Compound 2419, 6-methoxy-N-[(2-oxo-1H-pyridin-3-yl)sulfonyl]-2-[(4S)-2,2,4-trimethylpyrrolidin-1-yl]quinoline-3-carboxamide] | 3000 to 10000 nM |
| COc1cccc(F)c1-c1ccc(C(=O)NS(=O)(=O)c2ccc[nH]c2=O)c(N2C[C@@H](C)CC2(C)C)n1 [Compound 2422, 6-(2-fluoro-6-methoxy-phenyl)-N-[(2-oxo-1H-pyridin-3-yl)sulfonyl]-2-[(4S)-2,2,4-trimethylpyrrolidin-1-yl]pyridine-3-carboxamide] | 3000 to 10000 nM |
| CCCCCCN1CCN(c2cccc(S(=O)(=O)NC(=O)c3cccnc3N3CC(C)CC3(C)C)n2)CC1 (stereo not drawn) [Compound 2423, N—[[6-(4-hexylpiperazin-1-yl)-2-pyridyl]sulfonyl]-2-(2,2,4-trimethylpyrrolidin-1-yl)pyridine-3-carboxamide] | < 3000 nM |
| Cc1ccc(O)c(-c2ccc(C(=O)NS(=O)(=O)c3cccnc3N)c(N3C[C@@H](C)CC3(C)C)n2)c1 [Compound 2426, N-[(2-amino-3-pyridyl)sulfonyl]-6-(2-hydroxy-5-methyl-phenyl)-2-[(4S)-2,2,4-trimethylpyrrolidin-1-yl]pyridine-3-carboxamide] | < 3000 nM |
| CC(C)COc1cc(F)cc(-c2ccc(C(=O)NS(=O)(=O)N3CC[C@@H](O)C3)c(N3C[C@@H](C)CC3(C)C)n2)c1 [Compound 2427, 6-(3-fluoro-5-isobutoxy-phenyl)-N-[(3R)-3-hydroxypyrrolidin-1-yl]sulfonyl-2-[(4S)-2,2,4-trimethylpyrrolidin-1-yl]pyridine-3-carboxamide] | < 3000 nM |
| COc1ccc(COc2cccc(S(=O)(=O)NC(=O)c3cccnc3N3CC(C)CC3(C)C)n2)cc1 (stereo not drawn) [Compound 2428, N—[[6-[(4-methoxyphenyl)methoxy]-2-pyridyl]sulfonyl]-2-(2,2,4-trimethylpyrrolidin-1-yl)pyridine-3-carboxamide] | < 3000 nM |
| CC1CN(c2ncccc2C(=O)NS(=O)(=O)c2cccc(OCC3(C)CC3)n2)C(C)(C)C1 (stereo not drawn) [Compound 2434, N—[[6-[(1-methylcyclopropyl)methoxy]-2-pyridyl]sulfonyl]-2-(2,2,4-trimethylpyrrolidin-1-yl)pyridine-3-carboxamide] | < 3000 nM |

Continued, values first:

| EC30 | SMILES |
| --- | --- |
| < 3000 nM | CCOCCOc1ncc(-c2ccc(C(=O)NS(=O)(=O)c3cccc(N)n3)c(N3C[C@@H](C)CC3(C)C)n2)cc1C [Compound 2404, N-[(6-amino-2-pyridyl)sulfonyl]-6-[6-(2-ethoxyethoxy)-5-methyl-3-pyridyl]-2-[(4S)-2,2,4-trimethylpyrrolidin-1-yl]pyridine-3-carboxamide] |
| < 3000 nM | CC1CN(c2ncccc2C(=O)NS(=O)(=O)c2cccc(OC(C)c3ccccc3F)n2)C(C)(C)C1 (stereo not drawn) [Compound 2408, N—[[6-[1-(2-fluorophenyl)ethoxy]-2-pyridyl]sulfonyl]-2-(2,2,4-trimethylpyrrolidin-1-yl)pyridine-3-carboxamide] |
| < 3000 nM | CC1CN(c2ncccc2C(=O)NS(=O)(=O)c2cccc(OCc3cccc(F)c3)n2)C(C)(C)C1 (stereo not drawn) [Compound 2409, N—[[6-[(3-fluorophenyl)methoxy]-2-pyridyl]sulfonyl]-2-(2,2,4-trimethylpyrrolidin-1-yl)pyridine-3-carboxamide] |
| 3000 to 10000 nM | COc1cccc(Nc2cccc(S(=O)(=O)NC(=O)c3cccnc3N3CC(C)CC3(C)C)n2)n1 (stereo not drawn) [Compound 2420, N—[[6-[(6-methoxy-2-pyridyl)amino]-2-pyridyl]sulfonyl]-2-(2,2,4-trimethylpyrrolidin-1-yl)pyridine-3-carboxamide] |
| < 3000 nM | CC1CN(c2ncccc2C(=O)NS(=O)(=O)c2cccc(NCc3cc(F)cc(F)c3)n2)C(C)(C)C1 (stereo not drawn) [Compound 2421, N—[[6-[(3,5-difluorophenyl)methylamino]-2-pyridyl]sulfonyl]-2-(2,2,4-trimethylpyrrolidin-1-yl)pyridine-3-carboxamide] |
| < 3000 nM | Cc1cccc(-c2ccc(C(=O)NS(=O)(=O)c3ccc[nH]c3=O)c(N3C[C@@H](C)CC3(C)C)n2)c1 [Compound 2424, 6-(m-tolyl)-N-[(2-oxo-1H-pyridin-3-yl)sulfonyl]-2-[(4S)-2,2,4-trimethylpyrrolidin-1-yl]pyridine-3-carboxamide] |
| < 3000 nM | CC1CN(c2ncc(-c3cccc(Cl)c3)cc2C(=O)NS(=O)(=O)c2cccc(N)n2)C(C)(C)C1 (stereo not drawn) [Compound 2429, N-[(6-amino-2-pyridyl)sulfonyl]-5-(3-chlorophenyl)-2-(2,2,4-trimethylpyrrolidin-1-yl)pyridine-3-carboxamide] |
| 3000 to 10000 nM | COc1cccc(S(=O)(=O)NC(=O)c2cccnc2N2CC(C)CC2(C)C)n1 (stereo not drawn) [Compound 2430] |
| < 3000 nM | COc1cc(F)cc(-c2cnc(N3CC(C)CC3(C)C)c(C(=O)NS(=O)(=O)c3cccc(N)n3)c2)c1 (stereo not drawn) [Compound 2431, N-[(6-amino-2-pyridyl)sulfonyl]-5-(3-fluoro-5-methoxy-phenyl)-2-(2,2,4-trimethylpyrrolidin-1-yl)pyridine-3-carboxamide] |
| 3000 to 10000 nM | CC(=O)Nc1cccc(Oc2cccc(S(=O)(=O)NC(=O)c3cccnc3N3CC(C)CC3(C)C)n2)c1 (stereo not drawn) [Compound 2433, N—[[6-(3-acetamidophenoxy)-2-pyridyl]sulfonyl]-2-(2,2,4-trimethylpyrrolidin-1-yl)pyridine-3-carboxamide] |
